In patent US11435363B2, “Relevance of achieved levels of markers of systemic inflammation following treatment” (The Brigham and Women's Hospital, Inc., priority 2004, dated 2022):

Assays:
LDLC = assay: PROVE IT-TIMI 22: LDLC levels on statin therapy; format: in vivo, human; conditions: for proportion of allocated patients who achieved an LDLC goal of <70 mg/dL: day 30, atorvastatin 80 mg or pravastatin 40 mg, P<0.001
Source text: (§1) In total, 4,162 patients who had been hospitalized within the preceding 10 days for acute coronary syndrome and provided written informed consent were enrolled at 349 sites in eight countries. Approximately two-thirds had acute myocardial infarction and the remainder had high-risk unstable angina.
(§2) For this analysis, we defined achieved LDLC and achieved CRP levels as those values obtained at the 30 day follow-up, a period of time adequate for the effect of statin therapy to be seen for both LDLC and CRP and a time when any residual effects of ischemia on each parameter would no longer be evident. Of the total cohort, 3,745 participants (90.0 percent) were alive and free of a recurrent event at day 30 and underwent evaluation for both LDLC and CRP at that time. All laboratory measurements were made in core facilities and a validated assay for high sensitivity CRP used (Denka Seiken).
Spearman correlation coefficients were used to evaluate the relationship between achieved LDLC and achieved CRP. We then used a multi-stage process to address the impact of achieved LDLC and achieved CRP levels on rates of recurrent myocardial infarction or fatal coronary events that occurred after day 30 in the study. First, we divided the study population into increasing quartiles of achieved LDLC and achieved CRP and sought evidence that these levels were associated with increased risk of recurrent myocardial infarction or coronary death, both in age-adjusted analyses and after further adjustment for gender, smoking status (current/non-smoker), diabetes, body mass index (kg/m^2), and history of hypertension. […] To address the relative impact of achieved CRP across LDLC strata, we repeated this process after dividing the study cohort into four groups on the basis of achieved LDLC levels and achieved CRP levels above or below the respective values of 70 mg/dL and 2.0 mg/L. A test for trend across groups was performed assigning a score of 0 to those with low levels of both, a score of 1 to the two intermediate groups, and a score of 2 to those with high levels of both. […]

[1] = tested on: acute coronary syndrome patients; assay: PROVE IT-TIMI 22: recurrent myocardial infarction or coronary death after day 30; format: in vivo, human; conditions: for recurrent event rate, achieved LDLC <70 mg/dL and achieved CRP greater than 2.0 mg/L / recurrent event rate, achieved LDLC <70 mg/dL and achieved CRP less than 2.0 mg/L: recurrent myocardial infarction or coronary death, P for difference between agents=0.7
Source text: as §1, §2
(§3) Spearman correlation coefficients were used to evaluate the relationship between achieved LDLC and achieved CRP. We then used a multi-stage process to address the impact of achieved LDLC and achieved CRP levels on rates of recurrent myocardial infarction or fatal coronary events that occurred after day 30 in the study. First, we divided the study population into increasing quartiles of achieved LDLC and achieved CRP and sought evidence that these levels were associated with increased risk of recurrent myocardial infarction or coronary death, both in age-adjusted analyses and after further adjustment for gender, smoking status (current/non-smoker), diabetes, body mass index (kg/m^2), and history of hypertension. […] To address the relative impact of achieved CRP across LDLC strata, we repeated this process after dividing the study cohort into four groups on the basis of achieved LDLC levels and achieved CRP levels above or below the respective values of 70 mg/dL and 2.0 mg/L. A test for trend across groups was performed assigning a score of 0 to those with low levels of both, a score of 1 to the two intermediate groups, and a score of 2 to those with high levels of both. Similar analyses were performed after stratification of the study group according to atorvastatin or pravastatin allocation. Estimates of hazard ratios were obtained using Cox proportional-hazards models.

CRP = conditions: for median CRP level at day 30 / median CRP level at end of study: atorvastatin 80 mg/day or pravastatin 40 mg/day orally; for median CRP level at day 30 / median CRP level at end of study / proportion of treated patients who achieved CRP levels below 2.0 at day 30: P<0.001; for median CRP level at end of study: end of study (mean 24 months); for proportion of treated patients who achieved CRP levels below 2.0 at day 30: atorvastatin 80 mg or pravastatin 40 mg
Source text: as §1, §2, §3

[2] = tested on: acute coronary syndrome patients; conditions: overall trial result, reference (7); cited from earlier work

| Structure (SMILES) | LDLC levels compared with the pravastatin group (LDLC; day 30, 4 months and end of study, identical at randomization) | proportion of allocated patients who achieved an LDLC goal of <70 mg/dL (LDLC) | fully adjusted hazard ratio for atorvastatin vs pravastatin, clinical outcomes ([1]; after accounting for achieved LDLC and achieved CRP, 95% CI 0.75 to 1.34, P=0.9) | recurrent event rate, achieved LDLC <70 mg/dL and achieved CRP greater than 2.0 mg/L [1] | recurrent event rate, achieved LDLC <70 mg/dL and achieved CRP less than 2.0 mg/L [1] | median CRP level at day 30 (CRP) | median CRP level at end of study (CRP) | proportion of treated patients who achieved CRP levels below 2.0 at day 30 (CRP) | overall clinical outcome in the PROVE IT-TIMI 22 trial [2] | effect on CRP levels (CRP; gatifloxicin versus placebo allocation in this population) |
| --- | --- | --- | --- | --- | --- | --- | --- | --- | --- | --- |
| CC(C)c1c(C(=O)Nc2ccccc2)c(-c2ccccc2)c(-c2ccc(F)cc2)n1CC[C@@H](O)C[C@@H](O)CC(=O)O [atorvastatin] | significantly lower | 72.3% | 1.00 | 3.1 per 100 person-years | 2.3 per 100 person-years | 1.6 mg/L | 1.3 mg/1 | 57.5% | superior to pravastatin overall | – |
| COc1c(N2CCNC(C)C2)c(F)cc2c(=O)c(C(=O)O)cn(C3CC3)c12 (stereo not shown) [gatifloxicin] | – | – | – | – | – | – | – | – | – | no significant effect on CRP levels |
| CC[C@H](C)C(=O)O[C@H]1C[C@H](O)C=C2C=C[C@H](C)[C@H](CC[C@@H](O)C[C@@H](O)CC(=O)O)[C@H]21 [pravastatin] | – | 21.7% | – | 3.4 per 100 person-years | 2.5 per 100 person-years | 2.3 mg/L | 2.1 mg/1 | 44.9% | – | – |
